# Test results taken from patent publication EP1860116A1, “Trehalose conjugate with carnosine having antioxidant activity, stable to enzymatic hydrolysis, procedure for its preparation, and pharmaceutical, cosmetic and nutraceutical compositions that contain it” (Universita' Degli Studi Di Catania, priority 2006, dated 2007).
# Tests used:
# [1] = system: low-density lipoproteins (LDL); test: Antioxidant activity towards low-density lipoproteins (LDL): Cu2+-induced lipid peroxidation, MDA determined by HPLC; type: biochemical; details: human LDL, peroxidation induced by copper (II) ions (40 µM), 4 h at 37°C, pH 7.4; conjugate at 5, 10, 20, 50, 100 and 200 µM; compared with carnosine
# Procedure: In order to test the antioxidant activity of carnosine and the carbohydrate derivative, freeze-dried human LDL (Sigma) was used as lipid peroxidation target.
# The MDA standard was obtained by hydrolysis of the bis-dimethylacetal derivative (Sigma) in 1% sulphuric acid.
# The process of peroxidation of humane LDLs (Sigma), suspended in 20 mM ammonium acetate at pH 7.4, was triggered by the addition of Cu^2+ (40 µM) to the protein suspension, followed by a 4 h incubation at 37°C (Free Radic. Res. 35, 953, 2001; J. Agr. Food Chem. 45, 3362, 1997). The lipid peroxidation inhibiting effect of the trehalose-carnosine conjugate was evaluated by adding this molecule to the LDL-Cu^2+ system at increasing concentrations (5, 10, 20, 50, 100 and 200 µM). The peroxidation reaction was interrupted by adding an equal volume of acetonitrile, followed by double extraction with chloroform.
# For the determination of MDA, the end product of lipid peroxidation, the aqueous extract was analysed by HPLC, using an analysis method reported in Anal. Biochem. 197, 191, 1991 (data reported in figure 1).
# [2] = system: carnosinase contained in rat brain homogenate; test: Enzymatic hydrolysis by brain carnosinase (rat brain homogenate, histidine quantified fluorometrically with OPA); type: in vitro ADME; details: 20% rat brain homogenate, Tris buffer pH 8.1, 37°C for 2 h, compared with carnosine
# Procedure: The breakdown of the carbohydrate conjugate of carnosine was measured by the following method: a 20% homogenate of rat brain was prepared with a 50 mM Tris buffer (Tris-(hydroxymethyl)-aminomethane) pH 8.1 containing 2 mM DTT (di-thio-threitol), and the mixture was centrifuged for 20 min at 19000 rpm. Part of the supernatant solution (192 µl) was incubated at 37°C for 2 h with the carnosine-trehalose conjugate, in a final volume of 300 µl. The reaction was interrupted by adding acetonitrile (300 µL), and the solution was subjected to double extraction with chloroform. The amount of histidine in the final solution was quantified fluorometrically after reacting with orthophthaldialdehyde OPA (Fluka), according to a method reported in Clin. Chim.
structure (smiles),measurement,setting,value
"O=C(CCNC[C@H]1O[C@H](O[C@H]2O[C@H](CO)[C@@H](O)[C@H](O)[C@H]2O)[C@H](O)[C@@H](O)[C@@H]1O)N[C@@H](Cc1c[nH]cn1)C(=O)O [compound I, 6-(β-alanyl-L-histidine)-6-deoxy-α,α'-trehalose]",antioxidant activity (lipid peroxidation inhibiting effect),[1],"dose-dependent antioxidant effect, which was significantly greater than that of carnosine"
same,resistance to enzymatic hydrolysis by carnosinase,[2],more resistant to the carnosinase contained in rat brain homogenate than carnosine
same,resistance to enzymatic hydrolysis by carnosinase,[2]; listed as compound according to the invention,more resistant to enzymatic hydrolysis than carnosine
